The results in this text go back to patent US20220389061A1, “IMMUNOMODULATORS” (priority 2019, published 2022).

Positions of bridges follow the written chain, without caps; N, C: chain ends. Non-standard residues stand in square brackets, D forms with d. Residues, ends and D or L forms follow the SMILES beside them. *: point of attachment. Trp(1-CH2COOH) = N[C@@H](Cc1cn(CC(=O)O)c2ccccc12)C(=O)O; Hyp = O=C(O)[C@@H]1C[C@@H](O)CN1; X42 = S=C(Nc1ccc2nccnc2c1Br)*; X60 = Cc1cc2cc(NC(=S)*)ccc2o1; NMeNle = CCCC[C@H](NC)C(=O)O; X4 = S=C(Nc1ccc2c(c1)OCCO2)*; NMeA = CN[C@@H](C)C(=O)O; Dab = NCC[C@H](N)C(=O)O; Dap = NC[C@H](N)C(=O)O

The experiment concerns the target T1, PD-1/PD-L1 (Homo sapiens, UniProt Q9NZQ7).
T1 construct: TVMV protease site linker (C); made in house; host or cells: HEK293T cells
The experiment can be described thus: PD-1/PD-L1 Homogenous Time-Resolved Fluorescence (HTRF) binding assay. The following applies: PD-L1-His 10 nM pre-incubated with inhibitor, PD-1-Ig 20 nM; read-out: HTRF IC50. The gist of the method:
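HTRF read-out using europium cryptate anti-Ig (1 nM) and APC anti-His (20 nM) on extracellular-domain fusion proteins in dPBS/0.1% BSA/0.05% Tween-20. Inhibitor first incubated 15 min with 10 nM PD-L1-His, followed by 20 nM PD-1-Ig for another 15 min.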

Broadly, the IC50 is the point on the concentration scale where inhibition reaches its midpoint.

T1 sequence (Q9NZQ7 18-239): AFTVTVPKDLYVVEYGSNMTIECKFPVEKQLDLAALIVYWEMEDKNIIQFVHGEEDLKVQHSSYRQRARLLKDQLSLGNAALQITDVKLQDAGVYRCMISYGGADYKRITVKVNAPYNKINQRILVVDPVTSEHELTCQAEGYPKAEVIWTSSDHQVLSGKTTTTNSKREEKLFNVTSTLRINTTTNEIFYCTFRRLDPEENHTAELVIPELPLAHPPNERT

With `CCCC[C@H]1C(=O)N(C)[C@@H](CCCC)C(=O)N[C@@H](CC(C)C)C(=O)N[C@H](C(=O)NCC(N)=O)CSCC(=O)N[C@@H](Cc2ccc(O)cc2)C(=O)N(C)[C@@H](C)C(=O)N[C@@H](CC(N)=O)C(=O)N2CCC[C@H]2C(=O)N[C@@H](CNC(=S)Nc2ccc3c(c2)OCCO3)C(=O)N[C@@H](CC(C)C)C(=O)N2C[C@H](O)C[C@H]2C(=O)N[C@@H](Cc2c[nH]c3ccccc23)C(=O)N[C@@H](CCNC(=S)Nc2ccc3c(c2)OCCO3)C(=O)N[C@@H](Cc2cn(CC(=O)O)c3ccccc23)C(=O)N1C` [Example 3069] ({CH2CO}-Y[NMeA]NP[Dap](X4)L[Hyp]W[Dab](X4)[Trp(1-CH2COOH)][NMeNle][NMeNle]LCG-NH2; thioether N-14), the IC50 turned out to be 3.1 nM.
Under `CCCC[C@H]1C(=O)N(C)[C@@H](CCCC)C(=O)N[C@@H](CC(C)C)C(=O)N[C@H](C(=O)NCC(N)=O)CSCC(=O)N[C@@H](Cc2ccc(O)cc2)C(=O)N(C)[C@@H](C)C(=O)N[C@@H](CC(N)=O)C(=O)N2CCC[C@H]2C(=O)N[C@@H](CNC(=S)Nc2ccc3nccnc3c2Br)C(=O)N[C@@H](CC(C)C)C(=O)N2C[C@H](O)C[C@H]2C(=O)N[C@@H](Cc2c[nH]c3ccccc23)C(=O)N[C@@H](CCNC(=S)Nc2ccc3nccnc3c2Br)C(=O)N[C@@H](Cc2cn(CC(=O)O)c3ccccc23)C(=O)N1C` [Example 3070] ({CH2CO}-Y[NMeA]NP[Dap](X42)L[Hyp]W[Dab](X42)[Trp(1-CH2COOH)][NMeNle][NMeNle]LCG-NH2; thioether N-14) stands 5.9 nM.
For the molecule `CCCC[C@H]1C(=O)N(C)[C@@H](CCCC)C(=O)N[C@@H](CC(C)C)C(=O)N[C@H](C(=O)NCC(N)=O)CSCC(=O)N[C@@H](Cc2ccc(O)cc2)C(=O)N(C)[C@@H](C)C(=O)N[C@@H](CC(N)=O)C(=O)N2CCC[C@H]2C(=O)N[C@@H](CNC(=S)Nc2ccc3oc(C)cc3c2)C(=O)N[C@@H](CC(C)C)C(=O)N2C[C@H](O)C[C@H]2C(=O)N[C@@H](Cc2c[nH]c3ccccc23)C(=O)N[C@@H](CCNC(=S)Nc2ccc3oc(C)cc3c2)C(=O)N[C@@H](Cc2cn(CC(=O)O)c3ccccc23)C(=O)N1C` [Example 3072] ({CH2CO}-Y[NMeA]NP[Dap](X60)L[Hyp]W[Dab](X60)[Trp(1-CH2COOH)][NMeNle][NMeNle]LCG-NH2; thioether N-14), the IC50 came out at 1.5 nM.
Take `CCCC[C@H]1C(=O)N(C)[C@@H](CCCC)C(=O)N[C@@H](CC(C)C)C(=O)N[C@H](C(=O)NCC(N)=O)CSCC(=O)N[C@@H](Cc2ccc(O)cc2)C(=O)N(C)[C@@H](C)C(=O)N[C@@H](CC(N)=O)C(=O)N2CCC[C@H]2C(=O)N[C@@H](CNC(=S)Nc2ccc3c(c2)OCCO3)C(=O)N[C@@H](CC(C)C)C(=O)N2C[C@H](O)C[C@H]2C(=O)N[C@@H](Cc2c[nH]c3ccccc23)C(=O)N[C@@H](CCN)C(=O)N[C@@H](Cc2cn(CC(=O)O)c3ccccc23)C(=O)N1C` [Example 3073] ({CH2CO}-Y[NMeA]NP[Dap](X4)L[Hyp]W[Dab][Trp(1-CH2COOH)][NMeNle][NMeNle]LCG-NH2; thioether N-14): the IC50 came to 5 nM.
